Measured values taken from patent US6737383B1, “Herbicidal oxadiazolidines” (priority 1999, dated 2004).

Tests used:
common ragweed = assay: Test D common ragweed; assay type: in vivo, Ambrosia elatior; details: Postemergence, 0 to 100 scale
purple nutsedge = assay: Test D purple nutsedge; assay type: in vivo, Cyperus rotundus; details: Postemergence, 0 to 100 scale
large crabgrass = assay: Test D large crabgrass; assay type: in vivo, Digitaria sanguinalis; details: Postemergence, 0 to 100 scale
Johnson grass = assay: Test D Johnson grass; assay type: in vivo, Sorghum halepense; details: Postemergence, 0 to 100 scale
common groundsel = assay: Test D common groundsel; assay type: in vivo, Senecio vulgaris; details: Postemergence, 0 to 100 scale
Green foxtail = assay: Test D green foxtail; assay type: in vivo; details: Postemergence, 0 to 100 scale, 0 no injury, 100 complete control
Spanishneedles = assay: Test D Spanishneedles; assay type: in vivo, Bidens bipinnata; details: Postemergence, 0 to 100 scale
pitted morningglory = assay: Test D pitted morningglory; assay type: in vivo, Ipomoea lacunosa; details: Postemergence, 0 to 100 scale
Alexandergrass = assay: Test D Alexandergrass; assay type: in vivo, Brachiaria plantaginea; details: Postemergence, 0 to 100 scale
bermuda-grass = assay: Test D bermudagrass; assay type: in vivo, Cynodon dactylon; details: Postemergence, 0 to 100 scale
itchgrass = assay: Test D itchgrass; assay type: in vivo, Rottboellia exaltata; details: Postemergence, 0 to 100 scale
surinam grass = assay: Test D surinam grass; assay type: in vivo, Brachiaria decumbens; details: Postemergence, 0 to 100 scale
[1] = Rate 16 g/ha, 0 no injury, 100 complete control
[2] = Rate 32 g/ha, 0 no injury, 100 complete control
[3] = Rate 64 g/ha, 0 no injury, 100 complete control
[4] = Rate 125 g/ha, 0 no injury, 100 complete control

In the case of `CC(C)N(C(=O)n1oc(=O)n(C2CC2)c1=O)c1ccc(Cl)cc1` [Compound 241], the “Plant response rating, C. ragweed” value (common ragweed; [1]) is reported as 0, the “Plant response rating, C. ragweed” value (common ragweed; [2]) is reported as 0 and the “Plant response rating, C. ragweed” value (common ragweed; [3]) is reported as 20. For the same compound, the “Plant response rating, C. ragweed” value (common ragweed; [4]) was 100, the “Plant response rating, C. ragweed” value (common ragweed; Rate 250 g/ha) was 100 and the “Plant response rating, Purple nutsedge” value (purple nutsedge; [1]) was 0. For the same compound, the “Plant response rating, Purple nutsedge” value (purple nutsedge; [2]) was 0, the “Purple nutsedge plant response rating” value (purple nutsedge; [3]) was 0 and the “Purple nutsedge plant response rating” value (purple nutsedge; [4]) was 0. For the same compound, the “Plant response rating, Purple nutsedge” value (purple nutsedge; Rate 250 g/ha) was 0, the “Plant response rating, Large crabgrass” value (large crabgrass; [1]) was 0 and the “Plant response rating, Large crabgrass” value (large crabgrass; [2]) was 70. For the same compound, the “Plant response rating, Large crabgrass” value (large crabgrass; [3]) was 100, the “Plant response rating, Large crabgrass” value (large crabgrass; [4]) was 100 and the “Plant response rating, Large crabgrass” value (large crabgrass; Rate 250 g/ha) was 100. For the same compound, the “Plant response rating, Johnsongrass” value (Johnson grass; [1]) was 80, the “Plant response rating, Johnsongrass” value (Johnson grass; [2]) was 0 and the “Plant response rating, Johnsongrass” value (Johnson grass; [3]) was 0. The “Plant response rating, Johnsongrass” value (Johnson grass; [4]) was 0, the “Plant response rating, Johnsongrass” value (Johnson grass; Rate 250 g/ha) was 0 and the “Plant response rating, Com. groundsel” value (common groundsel; [2]) was 0. For the same compound, the “Plant response rating, Com. groundsel” value (common groundsel; [3]) was 0, the “Plant response rating, Com. groundsel” value (common groundsel; [4]) was 100 and the “Plant response rating, Com. groundsel” value (common groundsel; Rate 250 g/ha) was 100. For the same compound, the “Plant response rating, Green foxtail” value (Green foxtail; Rate 16 g/ha) was 0, the “Plant response rating, Green foxtail” value (Green foxtail; Rate 32 g/ha) was 10 and the “Plant response rating, Spanishneedles” value (Spanishneedles; [1]) was 0. The “Plant response rating, Spanishneedles” value (Spanishneedles; [2]) was 0, the “Spanishneedles plant response rating” value (Spanishneedles; [3]) was 0 and the “Spanishneedles plant response rating” value (Spanishneedles; [4]) was 0. For the same compound, the “Plant response rating, Spanishneedles” value (Spanishneedles; Rate 250 g/ha) was 10, the “Plant response rating, P. morninglory” value (pitted morningglory; [1]) was 0 and the “Plant response rating, P. morninglory” value (pitted morningglory; [2]) was 0. For the same compound, the “Plant response rating, P. morninglory” value (pitted morningglory; [3]) was 0, the “Plant response rating, P. morninglory” value (pitted morningglory; [4]) was 0 and the “Plant response rating, P. morninglory” value (pitted morningglory; Rate 250 g/ha) was 0. The “Plant response rating, Alexandergrass” value (Alexandergrass; [1]) was 0, the “Plant response rating, Alexandergrass” value (Alexandergrass; [2]) was 10 and the “Plant response rating, Alexandergrass” value (Alexandergrass; [3]) was 10. For the same compound, the “Plant response rating, Alexandergrass” value (Alexandergrass; [4]) was 100, the “Plant response rating, Alexandergrass” value (Alexandergrass; Rate 250 g/ha) was 100 and the “Plant response rating, Bermudagrass” value (bermuda-grass; [1]) was 0. For the same compound, the “Plant response rating, Bermudagrass” value (bermuda-grass; [2]) was 30, the “Plant response rating, Bermudagrass” value (bermuda-grass; [3]) was 100 and the “Plant response rating, Bermudagrass” value (bermuda-grass; [4]) was 100. For the same compound, the “Plant response rating, Bermudagrass” value (bermuda-grass; Rate 250 g/ha) was 100, the “Plant response rating, Itchgrass” value (itchgrass; [1]) was 0 and the “Plant response rating, Itchgrass” value (itchgrass; [2]) was 0. The “Plant response rating, Itchgrass” value (itchgrass; [3]) was 0, the “Plant response rating, Itchgrass” value (itchgrass; [4]) was 100 and the “Plant response rating, Itchgrass” value (itchgrass; Rate 250 g/ha) was 100. For the same compound, the “Plant response rating, Surinam grass” value (surinam grass; [1]) was 0, the “Plant response rating, Surinam grass” value (surinam grass; [2]) was 0 and the “Surinam grass plant response rating” value (surinam grass; [3]) was 60. The “Surinam grass plant response rating” value (surinam grass; [4]) was 100 and the “Plant response rating, Surinam grass” value (surinam grass; Rate 250 g/ha) was 100.
